Results: ChEMBL document CHEMBL3885881, “DrugMatrix”

Species on record: Rattus norvegicus
Assay: DrugMatrix - Regimen: Daily Repeat
Format: toxicity, organism-based, Sprague-Dawley
Set-up: regimen Daily Repeat, gender Male, age 6-8 weeks
Settings: in vivo, po, route oral GAVAGE, vehicle 100 % WATER; for ABSOLUTE LYMPHOCYTE / ABSOLUTE MONOCYTE / ABSOLUTE SEGMENTED NEUTROPHIL / BASOPHIL / EOSINOPHIL / ERYTHROCYTE COUNT / HEMATOCRIT / LEUKOCYTE COUNT / LYMPHOCYTE / MEAN CORPUSCULAR HEMOGLOBIN / MEAN CORPUSCULAR HEMOGLOBIN CONCENTRATION / MEAN CORPUSCULAR VOLUME / MONOCYTE / NEUTROPHIL / NUCLEATED RED BLOOD CELLS / PLATELET COUNT / ABSOLUTE BASOPHIL / ABSOLUTE EOSINOPHIL: tissue Blood; for ALANINE AMINOTRANSFERASE / ALBUMIN / ALKALINE PHOSPHATASE / ASPARTATE AMINOTRANSFERASE / BLOOD UREA NITROGEN / CARBON DIOXIDE / CHLORIDE / CHOLESTEROL / CREATINE PHOSPHOKINASE / CREATININE / GLUCOSE / LACTATE DEHYDROGENASE / LIPASE / PHOSPHORUS / POTASSIUM / SODIUM / TOTAL BILIRUBIN / TOTAL PROTEIN / URIC ACID: tissue Plasma
[1] = 850 mg/kg, 72 h, dose level M1, time 3 day
[2] = 850 mg/kg, 120 h, dose level M1, time 5 day
[3] = 1500 mg/kg, 72 h, dose level High, time 3 day
[4] = 1500 mg/kg, 120 h, dose level High, time 5 day

CCCC(CCC)C(=O)O [VALPROIC ACID]
ABSOLUTE LYMPHOCYTE [1]: 8722.33 CELLS/uL | ABSOLUTE MONOCYTE [1]: 267.67 CELLS/uL | ABSOLUTE SEGMENTED NEUTROPHIL [1]: 836 CELLS/uL | BASOPHIL [1]: 0% | EOSINOPHIL [1]: 0.33% | ERYTHROCYTE COUNT [1]: 5.4 x10E6/uL | HEMATOCRIT [1]: 35.27% | LEUKOCYTE COUNT [1]: 9.87 x10E3/uL | LYMPHOCYTE [1]: 89% | MEAN CORPUSCULAR HEMOGLOBIN [1]: 25.37 pg | MEAN CORPUSCULAR HEMOGLOBIN CONCENTRATION [1]: 38.73 G/DL | MEAN CORPUSCULAR VOLUME [1]: 65.5 fL | MONOCYTE [1]: 2.67% | NEUTROPHIL [1]: 8% | NUCLEATED RED BLOOD CELLS [1]: 0 /100WBC | PLATELET COUNT [1]: 1024 x10E3/uL | ALANINE AMINOTRANSFERASE [1]: 50 u/L | ALBUMIN [1]: 3.97 G/DL | ALKALINE PHOSPHATASE [1]: 196.67 u/L | ASPARTATE AMINOTRANSFERASE [1]: 87.67 u/L | BLOOD UREA NITROGEN [1]: 13 mg/dL | CARBON DIOXIDE [1]: 29 mmol/L | CHLORIDE [1]: 99.33 MEQ/L | CHOLESTEROL [1]: 57.67 mg/dL | CREATINE PHOSPHOKINASE [1]: 134.67 u/L | CREATININE [1]: 0.11 mg/dL | GLUCOSE [1]: 145.67 mg/dL | LACTATE DEHYDROGENASE [1]: 142.67 u/L | LIPASE [1]: 9.33 u/L | PHOSPHORUS [1]: 11.37 mg/dL | POTASSIUM [1]: 6.32 MEQ/L | SODIUM [1]: 143.5 MEQ/L | TOTAL BILIRUBIN [1]: 0.23 mg/dL | TOTAL PROTEIN [1]: 5.33 G/DL | URIC ACID [1]: 1.57 mg/dL | ABSOLUTE BASOPHIL [2]: 0 CELLS/uL | ABSOLUTE EOSINOPHIL [2]: 50 CELLS/uL | ABSOLUTE LYMPHOCYTE [2]: 6795.67 CELLS/uL | ABSOLUTE MONOCYTE [2]: 121.33 CELLS/uL | ABSOLUTE SEGMENTED NEUTROPHIL [2]: 433 CELLS/uL | BASOPHIL [2]: 0% | EOSINOPHIL [2]: 0.67% | ERYTHROCYTE COUNT [2]: 5.21 x10E6/uL | HEMATOCRIT [2]: 33.77% | LEUKOCYTE COUNT [2]: 7.4 x10E3/uL | LYMPHOCYTE [2]: 92% | MEAN CORPUSCULAR HEMOGLOBIN [2]: 24.63 pg | MEAN CORPUSCULAR HEMOGLOBIN CONCENTRATION [2]: 38 G/DL | MEAN CORPUSCULAR VOLUME [2]: 64.83 fL | MONOCYTE [2]: 1.67% | NEUTROPHIL [2]: 5.67% | NUCLEATED RED BLOOD CELLS [2]: 0 /100WBC | PLATELET COUNT [2]: 851.33 x10E3/uL | ALANINE AMINOTRANSFERASE [2]: 58.33 u/L | ALBUMIN [2]: 3.83 G/DL | ALKALINE PHOSPHATASE [2]: 272 u/L | ASPARTATE AMINOTRANSFERASE [2]: 99 u/L | BLOOD UREA NITROGEN [2]: 12.67 mg/dL | CARBON DIOXIDE [2]: 31.67 mmol/L | CHLORIDE [2]: 100 MEQ/L | CHOLESTEROL [2]: 60 mg/dL | CREATINE PHOSPHOKINASE [2]: 402 u/L | CREATININE [2]: 0.28 mg/dL | GLUCOSE [2]: 139.67 mg/dL | LACTATE DEHYDROGENASE [2]: 186.33 u/L | LIPASE [2]: 11 u/L | PHOSPHORUS [2]: 11.17 mg/dL | POTASSIUM [2]: 6.05 MEQ/L | SODIUM [2]: 143.73 MEQ/L | TOTAL BILIRUBIN [2]: 0.2 mg/dL | TOTAL PROTEIN [2]: 5.83 G/DL | URIC ACID [2]: 0.5 mg/dL | ABSOLUTE BASOPHIL [3]: 0 CELLS/uL | ABSOLUTE EOSINOPHIL [3]: 0 CELLS/uL | ABSOLUTE LYMPHOCYTE [3]: 4940.67 CELLS/uL | ABSOLUTE MONOCYTE [3]: 35.67 CELLS/uL | ABSOLUTE SEGMENTED NEUTROPHIL [3]: 257 CELLS/uL | BASOPHIL [3]: 0% | EOSINOPHIL [3]: 0% | ERYTHROCYTE COUNT [3]: 5.94 x10E6/uL | HEMATOCRIT [3]: 37.3% | LEUKOCYTE COUNT [3]: 5.23 x10E3/uL | LYMPHOCYTE [3]: 94.33% | MEAN CORPUSCULAR HEMOGLOBIN [3]: 23.37 pg | MEAN CORPUSCULAR HEMOGLOBIN CONCENTRATION [3]: 37.17 G/DL | MEAN CORPUSCULAR VOLUME [3]: 62.83 fL | MONOCYTE [3]: 0.67% | NEUTROPHIL [3]: 5% | NUCLEATED RED BLOOD CELLS [3]: 0 /100WBC | PLATELET COUNT [3]: 901.67 x10E3/uL | ALANINE AMINOTRANSFERASE [3]: 32.33 u/L | ALBUMIN [3]: 4.5 G/DL | ALKALINE PHOSPHATASE [3]: 225.67 u/L | ASPARTATE AMINOTRANSFERASE [3]: 77.67 u/L | BLOOD UREA NITROGEN [3]: 10.67 mg/dL | CARBON DIOXIDE [3]: 26 mmol/L | CHLORIDE [3]: 104 MEQ/L | CHOLESTEROL [3]: 42.67 mg/dL | CREATINE PHOSPHOKINASE [3]: 120 u/L | CREATININE [3]: 0.22 mg/dL | GLUCOSE [3]: 138 mg/dL | LACTATE DEHYDROGENASE [3]: 112 u/L | LIPASE [3]: 7.67 u/L | PHOSPHORUS [3]: 14.3 mg/dL | POTASSIUM [3]: 6.21 MEQ/L | SODIUM [3]: 146.87 MEQ/L | TOTAL BILIRUBIN [3]: 0.1 mg/dL | TOTAL PROTEIN [3]: 5.87 G/DL | URIC ACID [3]: 1.7 mg/dL | ABSOLUTE BASOPHIL [4]: 0 CELLS/uL | ABSOLUTE EOSINOPHIL [4]: 7.25 CELLS/uL | ABSOLUTE LYMPHOCYTE [4]: 3923.75 CELLS/uL | ABSOLUTE MONOCYTE [4]: 124 CELLS/uL | ABSOLUTE SEGMENTED NEUTROPHIL [4]: 320 CELLS/uL | BASOPHIL [4]: 0% | EOSINOPHIL [4]: 0.25% | ERYTHROCYTE COUNT [4]: 6.03 x10E6/uL | HEMATOCRIT [4]: 36.38% | LEUKOCYTE COUNT [4]: 4.38 x10E3/uL | LYMPHOCYTE [4]: 91% | MEAN CORPUSCULAR HEMOGLOBIN [4]: 22.62 pg | MEAN CORPUSCULAR HEMOGLOBIN CONCENTRATION [4]: 37.5 G/DL | MEAN CORPUSCULAR VOLUME [4]: 60.35 fL | MONOCYTE [4]: 2.25% | NEUTROPHIL [4]: 6.5% | NUCLEATED RED BLOOD CELLS [4]: 0 /100WBC | PLATELET COUNT [4]: 549.5 x10E3/uL | ALANINE AMINOTRANSFERASE [4]: 52.5 u/L | ALBUMIN [4]: 4.57 G/DL | ALKALINE PHOSPHATASE [4]: 204.25 u/L | ASPARTATE AMINOTRANSFERASE [4]: 132 u/L | BLOOD UREA NITROGEN [4]: 15.75 mg/dL | CARBON DIOXIDE [4]: 28 mmol/L | CHLORIDE [4]: 105.75 MEQ/L | CHOLESTEROL [4]: 53.5 mg/dL | CREATINE PHOSPHOKINASE [4]: 1153.75 u/L | CREATININE [4]: 0.25 mg/dL | GLUCOSE [4]: 150.25 mg/dL | LACTATE DEHYDROGENASE [4]: 237.5 u/L | LIPASE [4]: 8.25 u/L | PHOSPHORUS [4]: 13.5 mg/dL | POTASSIUM [4]: 6.62 MEQ/L | SODIUM [4]: 146.95 MEQ/L | TOTAL BILIRUBIN [4]: 0.15 mg/dL | TOTAL PROTEIN [4]: 5.9 G/DL | URIC ACID [4]: 1.88 mg/dL
